# According to US8933230B2, “Phosphorus-containing group-substituted quinoline, its preparation process, medical composition containing the compounds and application” (priority 2011, dated 2015):
# Experiments:
# Assay in all cases: KinomeScan kinase panel
# Type in all cases: binding
# NIM1 = molecular target: T1, NIM1 (Homo sapiens, UniProt Q8IY84)
# T1 construct: purchased DiscoveRx Corporation (KinomeScan panel)
# In short: (§1)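 KinomeScan, 442 kinases incl. mutants; cpd 1000 nM; single-concentration inhibition.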
# PCTK2 = molecular target: T2, PCTK2 (Homo sapiens, UniProt Q00537)
# T2 construct: purchased DiscoveRx Corporation (KinomeScan panel)
# In short: as §1
# PRKR = molecular target: T3, PRKR (Homo sapiens, UniProt P19525)
# T3 construct: purchased DiscoveRx Corporation (KinomeScan)
# T3 sequence (P19525 whole entry): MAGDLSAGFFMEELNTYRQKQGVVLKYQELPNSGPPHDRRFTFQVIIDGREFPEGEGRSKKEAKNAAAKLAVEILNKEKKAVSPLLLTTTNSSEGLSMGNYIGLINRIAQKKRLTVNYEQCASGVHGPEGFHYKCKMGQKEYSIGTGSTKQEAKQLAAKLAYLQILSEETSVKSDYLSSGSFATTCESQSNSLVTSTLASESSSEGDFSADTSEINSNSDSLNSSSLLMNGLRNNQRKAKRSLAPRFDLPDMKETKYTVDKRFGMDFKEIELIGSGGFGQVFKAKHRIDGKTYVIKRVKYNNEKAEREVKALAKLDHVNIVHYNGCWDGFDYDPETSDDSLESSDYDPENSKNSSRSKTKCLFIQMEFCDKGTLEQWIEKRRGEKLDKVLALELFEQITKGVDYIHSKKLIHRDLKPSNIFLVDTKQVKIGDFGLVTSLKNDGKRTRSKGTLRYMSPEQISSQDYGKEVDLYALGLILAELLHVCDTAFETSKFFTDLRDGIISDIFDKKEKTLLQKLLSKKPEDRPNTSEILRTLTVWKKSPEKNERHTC
# In short: as §1
# ZAP7C = molecular target: T4, ZAP7C (Homo sapiens, UniProt P43403)
# T4 construct: purchased DiscoveRx Corporation (KinomeScan service)
# T4 sequence (P43403 whole entry): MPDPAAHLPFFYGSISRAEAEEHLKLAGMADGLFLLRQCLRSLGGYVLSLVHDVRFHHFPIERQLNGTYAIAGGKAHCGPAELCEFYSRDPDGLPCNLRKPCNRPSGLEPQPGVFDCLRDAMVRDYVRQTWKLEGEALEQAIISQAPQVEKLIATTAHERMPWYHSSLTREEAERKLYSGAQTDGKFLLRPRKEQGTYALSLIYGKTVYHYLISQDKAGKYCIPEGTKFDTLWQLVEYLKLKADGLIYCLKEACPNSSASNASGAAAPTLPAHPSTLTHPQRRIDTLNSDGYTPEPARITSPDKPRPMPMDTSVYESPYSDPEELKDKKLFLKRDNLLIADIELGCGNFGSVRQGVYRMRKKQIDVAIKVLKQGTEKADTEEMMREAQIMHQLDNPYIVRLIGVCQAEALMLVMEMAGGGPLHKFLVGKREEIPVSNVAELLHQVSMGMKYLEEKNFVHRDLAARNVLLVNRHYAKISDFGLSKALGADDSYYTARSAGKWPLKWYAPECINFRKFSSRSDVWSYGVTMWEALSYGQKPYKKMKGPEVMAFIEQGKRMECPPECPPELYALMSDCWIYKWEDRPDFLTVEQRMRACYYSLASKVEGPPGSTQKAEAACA
# In short: as §1
# MAP3K2 = molecular target: T5, MAP3K2 (Homo sapiens, UniProt Q9Y2U5)
# T5 construct: purchased DiscoveRx Corporation (KinomeScan)
# In short: as §1
# EGFR = molecular target: T6, EGFR (Homo sapiens, UniProt P00533)
# T6 construct: purchased DiscoveRx Corporation (KinomeScan)
# In short: as §1
# TESK1 = molecular target: T7, TESK1 (Homo sapiens, UniProt Q15569)
# T7 construct: purchased DiscoveRx Corporation (KinomeScan)
# T7 sequence (Q15569 whole entry): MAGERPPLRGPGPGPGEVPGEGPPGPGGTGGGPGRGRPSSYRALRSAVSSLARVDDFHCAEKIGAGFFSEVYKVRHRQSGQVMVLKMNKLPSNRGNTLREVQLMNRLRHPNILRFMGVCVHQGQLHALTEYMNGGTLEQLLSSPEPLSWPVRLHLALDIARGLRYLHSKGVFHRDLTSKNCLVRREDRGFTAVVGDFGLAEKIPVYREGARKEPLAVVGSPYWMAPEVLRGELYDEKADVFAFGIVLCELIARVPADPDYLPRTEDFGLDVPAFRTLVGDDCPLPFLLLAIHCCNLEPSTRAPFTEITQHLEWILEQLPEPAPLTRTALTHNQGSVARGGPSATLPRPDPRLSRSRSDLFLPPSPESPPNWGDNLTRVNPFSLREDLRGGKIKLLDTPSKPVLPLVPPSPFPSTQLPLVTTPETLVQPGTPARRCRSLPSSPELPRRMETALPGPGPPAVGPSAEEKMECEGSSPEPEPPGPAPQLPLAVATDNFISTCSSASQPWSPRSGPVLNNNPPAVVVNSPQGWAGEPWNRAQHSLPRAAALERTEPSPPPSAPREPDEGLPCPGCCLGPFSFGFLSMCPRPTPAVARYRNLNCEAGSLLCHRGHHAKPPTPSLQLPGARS
# In short: as §1
# ADCK4 = molecular target: T8, ADCK4 (Homo sapiens, UniProt Q96D53)
# T8 construct: purchased DiscoveRx Corporation (KinomeScan)
# In short: as §1
# [1] = molecular target: T9, ABL1(Q252H)-phosphorylated (Homo sapiens, UniProt P00519, Q252H)
# T9 construct: purchased DiscoveRx Corporation (KinomeScan)
# In short: as §1
# MEK3 = molecular target: T10, MEK3 (Homo sapiens, UniProt P46734)
# T10 construct: purchased DiscoveRx Corporation (KinomeScan)
# T10 sequence (P46734 whole entry): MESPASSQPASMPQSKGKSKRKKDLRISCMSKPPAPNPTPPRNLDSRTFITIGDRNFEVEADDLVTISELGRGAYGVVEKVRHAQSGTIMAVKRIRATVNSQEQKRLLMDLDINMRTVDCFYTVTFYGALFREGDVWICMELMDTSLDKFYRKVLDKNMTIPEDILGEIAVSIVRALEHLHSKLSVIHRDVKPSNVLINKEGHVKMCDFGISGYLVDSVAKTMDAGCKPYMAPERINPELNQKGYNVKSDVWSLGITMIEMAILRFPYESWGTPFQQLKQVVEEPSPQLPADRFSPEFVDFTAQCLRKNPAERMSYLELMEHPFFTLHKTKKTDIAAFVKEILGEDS
# In short: as §1
# PIK3CA(18DDL) = molecular target: T11, PIK3CA(18DDL) (Homo sapiens, UniProt P42336, I800L)
# T11 construct: purchased DiscoveRx Corporation (KinomeScan)
# In short: as §1
# MEK1 = molecular target: T12, MEK1 (Homo sapiens, UniProt Q02750)
# T12 construct: purchased DiscoveRx Corporation (KinomeScan)
# In short: as §1
# JNK3 = molecular target: T13, JNK3 (Homo sapiens, UniProt P53779)
# T13 construct: purchased DiscoveRx Corporation (KinomeScan)
# In short: as §1
# KIT = molecular target: T14, KIT (Homo sapiens, UniProt P10721)
# T14 construct: purchased DiscoveRx Corporation (KinomeScan)
# T14 sequence (P10721 26-976): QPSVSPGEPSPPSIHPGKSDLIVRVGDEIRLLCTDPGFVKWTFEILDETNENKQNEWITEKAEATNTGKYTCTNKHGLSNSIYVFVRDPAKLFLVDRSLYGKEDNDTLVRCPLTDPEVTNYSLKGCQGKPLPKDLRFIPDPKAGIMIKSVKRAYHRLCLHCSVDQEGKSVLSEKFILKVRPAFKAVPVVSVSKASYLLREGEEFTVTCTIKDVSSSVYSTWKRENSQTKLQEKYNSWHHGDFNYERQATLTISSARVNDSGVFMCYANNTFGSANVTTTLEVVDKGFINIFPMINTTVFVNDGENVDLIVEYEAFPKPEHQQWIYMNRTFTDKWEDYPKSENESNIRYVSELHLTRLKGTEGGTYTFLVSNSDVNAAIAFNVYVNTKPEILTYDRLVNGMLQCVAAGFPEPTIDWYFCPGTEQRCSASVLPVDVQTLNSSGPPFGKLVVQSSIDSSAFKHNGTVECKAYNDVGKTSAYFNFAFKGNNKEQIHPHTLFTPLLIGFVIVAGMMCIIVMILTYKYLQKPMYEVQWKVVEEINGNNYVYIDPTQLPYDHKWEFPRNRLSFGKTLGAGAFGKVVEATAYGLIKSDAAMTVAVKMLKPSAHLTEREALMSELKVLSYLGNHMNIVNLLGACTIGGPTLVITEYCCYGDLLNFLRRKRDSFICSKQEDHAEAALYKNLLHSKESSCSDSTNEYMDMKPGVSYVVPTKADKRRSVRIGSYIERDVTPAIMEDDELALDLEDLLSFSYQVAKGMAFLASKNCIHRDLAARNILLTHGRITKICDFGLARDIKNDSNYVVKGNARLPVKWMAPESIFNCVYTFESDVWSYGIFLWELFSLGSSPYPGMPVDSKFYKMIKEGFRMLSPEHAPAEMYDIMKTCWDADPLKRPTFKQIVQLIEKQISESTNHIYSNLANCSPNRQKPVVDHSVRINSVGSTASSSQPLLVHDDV
# In short: as §1
# NDR2 = molecular target: T15, NDR2 (Homo sapiens, UniProt Q9Y2H1)
# T15 construct: purchased DiscoveRx Corporation (KinomeScan)
# T15 sequence (Q9Y2H1 whole entry): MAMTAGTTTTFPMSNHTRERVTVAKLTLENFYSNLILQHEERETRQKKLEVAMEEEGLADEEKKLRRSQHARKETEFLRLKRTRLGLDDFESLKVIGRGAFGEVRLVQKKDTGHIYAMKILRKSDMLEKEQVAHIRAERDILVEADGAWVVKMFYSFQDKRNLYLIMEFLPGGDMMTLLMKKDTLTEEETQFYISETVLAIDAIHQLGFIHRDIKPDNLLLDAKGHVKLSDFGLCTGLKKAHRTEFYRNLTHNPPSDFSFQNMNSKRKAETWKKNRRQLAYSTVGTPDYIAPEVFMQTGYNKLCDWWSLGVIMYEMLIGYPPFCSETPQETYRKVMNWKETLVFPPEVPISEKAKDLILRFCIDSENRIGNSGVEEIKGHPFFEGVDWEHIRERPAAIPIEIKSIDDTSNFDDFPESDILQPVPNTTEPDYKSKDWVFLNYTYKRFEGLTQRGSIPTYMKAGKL
# In short: as §1
# KIT(A829P) = molecular target: T16, KIT(A829P) (Homo sapiens, UniProt P10721, A829P)
# T16 construct: purchased DiscoveRx Corporation (KinomeScan)
# T16 sequence (P10721 26-976 A829P): as the sequence (P10721 26-976) above, with A804P counted along it
# In short: as §1
# TRKC = molecular target: T17, TRKC (Homo sapiens, UniProt Q16288)
# T17 construct: purchased DiscoveRx Corporation (KinomeScan)
# In short: as §1
# ROCK1 = molecular target: T18, ROCK1 (Homo sapiens, UniProt Q13464)
# T18 construct: purchased DiscoveRx Corporation
# In short: as §1
# RET (V804M) = molecular target: T19, RET (V804M) (Homo sapiens, UniProt P07949, V804M)
# T19 construct: purchased DiscoveRx Corporation
# In short: as §1
# PDGFRA = molecular target: T20, PDGFRA (Homo sapiens, UniProt P16234)
# T20 construct: purchased DiscoveRx Corporation (KinomeScan panel)
# In short: as §1
# TXK = molecular target: T21, TXK (Homo sapiens, UniProt P42681)
# T21 construct: purchased DiscoveRx Corporation (KinomeScan)
# In short: as §1
# MARK3 = molecular target: T22, MARK3 (Homo sapiens, UniProt P27448)
# T22 construct: purchased DiscoveRx Corporation (KinomeScan)
# In short: as §1
# ERK5 = molecular target: T23, ERK5 (Homo sapiens, UniProt Q13164)
# T23 construct: purchased DiscoveRx Corporation (KinomeScan)
# In short: as §1
# MYLK2 = molecular target: T24, MYLK2 (Homo sapiens, UniProt Q9H1R3)
# T24 construct: purchased DiscoveRx Corporation (KinomeScan)
# In short: as §1
# ABL2 = molecular target: T25, ABL2 (Homo sapiens, UniProt P42684)
# T25 construct: purchased DiscoveRx Corporation (KinomeScan)
# In short: as §1
# LOK = molecular target: T26, LOK (Homo sapiens, UniProt O94804)
# T26 construct: purchased DiscoveRx Corporation (KinomeScan)
# In short: as §1
# STK36 = molecular target: T27, STK36 (Homo sapiens, UniProt Q9NRP7)
# T27 construct: purchased DiscoveRx Corporation (KinomeScan)
# In short: as §1
# PKN1 = molecular target: T28, PKN1 (Homo sapiens, UniProt Q16512)
# T28 construct: purchased DiscoveRx Corporation (KinomeScan)
# In short: as §1
# AURKC = molecular target: T29, AURKC (Homo sapiens, UniProt Q9UQB9)
# T29 construct: purchased DiscoveRx Corporation (KinomeScan)
# In short: as §1
# CAMKK2 = molecular target: T30, CAMKK2 (Homo sapiens, UniProt Q96RR4)
# T30 construct: purchased DiscoveRx Corporation (KinomeScan)
# In short: as §1
# [2] = molecular target: T31, ABL1(E255K)-phosphorylated (Homo sapiens, UniProt P00519, E255K)
# T31 construct: purchased DiscoveRx Corporation (KinomeScan)
# In short: as §1
# FYN = molecular target: T32, FYN (Homo sapiens, UniProt P06241)
# T32 construct: purchased DiscoveRx Corporation (KinomeScan)
# T32 sequence (P06241 whole entry): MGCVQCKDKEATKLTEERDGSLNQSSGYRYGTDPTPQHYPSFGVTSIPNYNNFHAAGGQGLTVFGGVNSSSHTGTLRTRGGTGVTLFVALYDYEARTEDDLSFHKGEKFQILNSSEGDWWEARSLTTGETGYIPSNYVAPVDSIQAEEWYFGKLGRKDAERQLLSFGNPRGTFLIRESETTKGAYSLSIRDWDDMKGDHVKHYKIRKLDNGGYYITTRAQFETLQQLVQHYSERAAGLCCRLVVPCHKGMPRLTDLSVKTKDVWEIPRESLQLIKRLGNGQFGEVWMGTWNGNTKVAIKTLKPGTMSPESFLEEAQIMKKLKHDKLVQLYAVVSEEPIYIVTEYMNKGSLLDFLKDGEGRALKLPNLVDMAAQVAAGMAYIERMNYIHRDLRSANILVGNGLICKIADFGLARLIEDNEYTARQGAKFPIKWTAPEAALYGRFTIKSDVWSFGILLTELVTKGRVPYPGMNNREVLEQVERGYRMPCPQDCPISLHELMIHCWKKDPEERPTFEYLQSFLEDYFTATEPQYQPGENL
# In short: as §1
# DMPK2 = molecular target: T33, DMPK2 (Homo sapiens, UniProt Q6DT37)
# T33 construct: purchased DiscoveRx Corporation (KinomeScan)
# In short: as §1
# LIMK2 = molecular target: T34, LIMK2 (Homo sapiens, UniProt P53671)
# T34 construct: purchased DiscoveRx Corporation (KinomeScan)
# In short: as §1
# P38-gamma = molecular target: T35, P38-gamma (Homo sapiens, UniProt P53778)
# T35 construct: purchased DiscoveRx Corporation (KinomeScan panel)
# T35 sequence (P53778 whole entry): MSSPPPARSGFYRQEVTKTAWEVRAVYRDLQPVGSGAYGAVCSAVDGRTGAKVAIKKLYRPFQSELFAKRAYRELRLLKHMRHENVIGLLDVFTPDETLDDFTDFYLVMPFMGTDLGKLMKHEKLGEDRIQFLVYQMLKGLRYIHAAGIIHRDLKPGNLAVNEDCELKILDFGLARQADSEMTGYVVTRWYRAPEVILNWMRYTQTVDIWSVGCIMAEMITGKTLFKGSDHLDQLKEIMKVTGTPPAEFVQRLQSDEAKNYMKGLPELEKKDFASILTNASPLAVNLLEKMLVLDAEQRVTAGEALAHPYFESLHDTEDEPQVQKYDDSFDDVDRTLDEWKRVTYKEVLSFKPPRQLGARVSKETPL
# In short: as §1
# PYK2 = molecular target: T36, PYK2 (Homo sapiens, UniProt Q14289)
# T36 construct: purchased DiscoveRx Corporation
# In short: as §1
# T1 sequence (Q8IY84 whole entry): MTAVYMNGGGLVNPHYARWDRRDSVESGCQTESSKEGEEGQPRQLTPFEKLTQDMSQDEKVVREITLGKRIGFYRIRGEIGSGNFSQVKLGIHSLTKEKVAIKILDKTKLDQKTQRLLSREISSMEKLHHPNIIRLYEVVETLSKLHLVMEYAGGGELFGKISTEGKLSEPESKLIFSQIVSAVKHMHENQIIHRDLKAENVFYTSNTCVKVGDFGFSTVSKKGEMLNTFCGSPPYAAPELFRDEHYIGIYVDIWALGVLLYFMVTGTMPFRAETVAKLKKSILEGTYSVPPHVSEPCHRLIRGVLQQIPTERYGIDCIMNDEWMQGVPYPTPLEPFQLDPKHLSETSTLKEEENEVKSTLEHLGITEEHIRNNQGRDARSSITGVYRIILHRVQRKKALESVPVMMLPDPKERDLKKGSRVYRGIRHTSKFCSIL
compound,measurement,setting,value
"CCOP(=O)(CN1CCC(COc2cc3nccc(Oc4ccc(NC(=O)C5(C(=O)Nc6ccc(F)cc6)CC5)cc4F)c3cc2OC)CC1)OCC [Example 10, N1-[4-[[7-[[1-(diethoxyphosphorylmethyl)-4-piperidinyl]methoxyl]-6-methoxyl-4-quinolyl]oxyl]-3-fluorophenyl]-N1′-(4-fluorophenyl)cyclopropane-1,1-dicarboxamide]",% Ctrl@1000 nM,NIM1,100 % Ctrl
same,% Ctrl@1000 nM,PCTK2,100 % Ctrl
same,% Ctrl@1000 nM,PRKR,100 % Ctrl
same,% Ctrl@1000 nM,ZAP7C,81 % Ctrl
same,% Ctrl@1000 nM,MAP3K2,100 % Ctrl
same,% Ctrl@1000 nM,EGFR,100 % Ctrl
same,% Ctrl@1000 nM,TESK1,39 % Ctrl
same,% Ctrl@1000 nM,ADCK4,100 % Ctrl
same,% Ctrl@1000 nM,[1],84 % Ctrl
same,% Ctrl@1000 nM,MEK3,100 % Ctrl
same,% Ctrl@1000 nM,PIK3CA(18DDL),100 % Ctrl
same,% Ctrl@1000 nM,MEK1,24 % Ctrl
same,% Ctrl@1000 nM,JNK3,95 % Ctrl
same,% Ctrl@1000 nM,KIT,0.2 % Ctrl
same,% Ctrl@1000 nM,NDR2,82 % Ctrl
same,% Ctrl@1000 nM,KIT(A829P),64 % Ctrl
same,% Ctrl@1000 nM,TRKC,2.2 % Ctrl
same,% Ctrl@1000 nM,ROCK1,100 % Ctrl
same,% Ctrl@1000 nM,RET (V804M),0.6 % Ctrl
same,% Ctrl@1000 nM,PDGFRA,1.8 % Ctrl
same,% Ctrl@1000 nM,TXK,62 % Ctrl
same,% Ctrl@1000 nM,MARK3,100 % Ctrl
same,% Ctrl@1000 nM,ERK5,100 % Ctrl
same,% Ctrl@1000 nM,MYLK2,100 % Ctrl
same,% Ctrl@1000 nM,ABL2,28 % Ctrl
same,% Ctrl@1000 nM,LOK,0 % Ctrl
same,% Ctrl@1000 nM,STK36,100 % Ctrl
same,% Ctrl@1000 nM,PKN1,100 % Ctrl
same,% Ctrl@1000 nM,AURKC,66 % Ctrl
same,% Ctrl@1000 nM,CAMKK2,81 % Ctrl
same,% Ctrl@1000 nM,[2],63 % Ctrl
same,% Ctrl@1000 nM,FYN,48 % Ctrl
same,% Ctrl@1000 nM,DMPK2,76 % Ctrl
same,% Ctrl@1000 nM,LIMK2,100 % Ctrl
same,% Ctrl@1000 nM,P38-gamma,100 % Ctrl
same,% Ctrl@1000 nM,PYK2,19 % Ctrl
